Measurements: patent publication EP2442784B1, “COMPOSITIONS AND METHODS FOR INHIBITING PAR2 ACTIVATION OF KERATINOCYTES” (THE PROCTER & GAMBLE COMPANY, priority 2010, dated 2012)

Target: T1, PAR-2 receptor (Homo sapiens, UniProt P55085)
T1 construct: host or cells: engineered cell line from DiscoveRx
T1 sequence (P55085 26-397): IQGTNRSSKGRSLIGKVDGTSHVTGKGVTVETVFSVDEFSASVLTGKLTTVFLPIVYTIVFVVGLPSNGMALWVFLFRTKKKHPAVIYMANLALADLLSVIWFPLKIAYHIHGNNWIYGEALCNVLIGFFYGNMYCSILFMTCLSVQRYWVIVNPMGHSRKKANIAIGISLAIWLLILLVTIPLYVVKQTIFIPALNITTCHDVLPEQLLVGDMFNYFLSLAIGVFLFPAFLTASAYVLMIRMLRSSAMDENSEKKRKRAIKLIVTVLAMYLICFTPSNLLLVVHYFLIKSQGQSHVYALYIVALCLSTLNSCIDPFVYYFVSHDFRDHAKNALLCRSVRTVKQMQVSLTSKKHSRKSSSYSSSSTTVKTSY
Assay: PAR-2 Inhibition Assay (beta arrestin recruitment / beta galactosidase complementation, luminescence; PAR2 activation by trypsin)
Format: cell-based
Settings: for PAR2 inhibitory effect (summary in words): over the dilution factors tested; for percent inhibition of PAR2 activation: activation by trypsin, triplicate
Source text: PAR-2 Inhibition Assay - The assay principle relies on the recruitment of beta arrestin to the activated PAR-2 receptor resulting in the formation of an active beta galactosidase enzyme which can cleave a substrate causing a luminescent signal that can be quantitated. PAR-2 can be activated by either adding trypsin and also by adding SLIGRL peptide.
Cells expressing PAR-2 receptor coupled to the alpha fragment of beta galactosidase and expressing beta arrestin coupled to the beta fragment of beta galactosidase are obtained from DiscoveRx Corp., Freemont, CA. Cells are propagated in a culture medium of Dulbeccos Modified Eagle Medium supplemented with 10% heat-inactivated fetal bovine serum, 500 unit/mL penicillin, 500 ug/mL streptomycin, 800 ug/mL gentimicin, and 300 ug/mL hygromycin in T75 or T150 culture flasks (all media components available from Invitrogen Corp., Carlsbad, CA) in a CO2 incubator at 37°C. When cells reach approximately 80% confluency, the cells are detached from the flask using Cell Dissociation Buffer (available from Invitrogen Corp., Carlsbad, CA as item number 13151-014). The cells are counted using a hemocytometer and plated into 384 well plates at 10000 cells/well in 20 uL/well of Opti-MEM® media (available from Invitrogen Corp., Carlsbad, CA). The cells are cultured for 24 -48 hours.
To assay potential inhibitors of PAR2 activation by trypsin, each well is treated with 1 uL of the test material in water. Each test material is run in triplicate. The cells are incubated for 30 minutes in the CO2 incubator, after which 1 uL of trypsin is added (approximate 0.1 ug/uL). The cells are incubated for an hour in the CO2 incubator after which the cell lysis substrate solution (11 uL/well) is added. The lysis substrate solution is available in the PathHunter™ Detection Kit (catalogue #93-0001) from DiscoveRx Corp., Freemont, CA, in which the components are mixed in the following ratio: • Assay Buffer: Substrate 1: Substrate 2 = 19:5:1 The plates are briefly centrifuged (approximately 5 minutes) at 800 X g to remove bubbles and are then incubated at room temperature for 1 hr. Luminescence is read for each well on an Envision™ 2101 Multilabel Reader (available form PerkinElmer, Inc., Boston, MA). The range is determined by wells with solvent control + trypsin (high control) and by wells with solvent control and no trypsin (low control). The percent PAR2 inhibition of each treatment is calculated by the following formula of the luminescence signals: (1-([treatment luminescence-low control luminescence])/([high control luminescence-low control luminescence])) × 100 [formula] Statistics are done in Excel by Microsoft, Redmond, WA, using the T-test function, single tail with uneven distribution functions.
Using the assay outlined above, various concentrations and combinations of Laminaria Saccharina extract (e.g., Phlorogine), N-acyl Amino Acid (e.g., Sepiwhite), and vitamin B3 (e.g., niacinamide) were tested. Stock compositions of 1% Phlorogine (i.e., composition comprises approximately 0.025% - 0.01% Laminaria Saccharina extract), 1% Sepiwhite, 5% niacinamide, and combinations thereof are prepared and diluted prior to use. Test runs are performed at dilution factors of 0.045, 0.023, and 0.006. For clarity purposes, the 1% Sepiwhite composition diluted at a factor of 0.045 yields a test compositing comprising 0.045% Sepiwhite.

[1] = stock composition diluted at dilution factor 0.006
[2] = stock composition diluted at dilution factor 0.023
[3] = stock composition diluted at dilution factor 0.045 (e.g. 0.045% Sepiwhite), 100% = control without trypsin

Compound	PAR2 inhibitory effect (summary in words)	percent inhibition of PAR2 activation [1]	percent inhibition of PAR2 activation [2]	percent inhibition of PAR2 activation [3]
C=CCCCCCCCCC(=O)N[C@@H](Cc1ccccc1)C(=O)O [1% Sepiwhite, N-undecylenoyl-L-phenylalanine]	inhibitory effect which is pronounced at higher dilutions	14%	35%	53%
NC(=O)c1cccnc1 [5% Niacinamide, niacinamide]	inhibitory effect which is pronounced at higher dilutions	5%	14%	20%
